# In US12227517B2, “Pyridazinyl-thiazolecarboxamide compound” (Astellas Pharma Inc., priority 2019, dated 2025):
# Target: human recombinant DGK ξ (Homo sapiens (Human), UniProt Q13574)
# Assay: Evaluation of DGK ξ inhibitory effect (ADP-Glo Kinase Assay)
# Assay type: biochemical
# Method: Test Example 1: Evaluation of DGK ξ Inhibitory Effect
# The inhibitory effect of a test compound on human recombinant DGK ξ (Carna Biosciences, Inc., 12-410-20N) was examined by the following method in which detection is performed with ADP-Glo™ Kinase Assay (Promega Corporation).
# To a 384-well plate (Greiner Bio-One Co., Ltd.), 3 μL of a […] dissolved in an assay buffer (40 mM Tris-HCl pH 7.5, 10 mM MgCl2, 1 mM dithiothreitol (DTT) and 0.1 mg/mL bovine serum albumin (BSA)) (90 ng/mL) was added, and 3 μL of the test compound diluted with the same assay buffer was added so that an intended final concentration was obtained. The mixture was left standing at room temperature for 15 minutes, 3 μL of a substrate (150 μM 1-oleoyl-2-acetyl-sn-glycerol (Sigma-Aldrich Co. LLC.), 480 μM phosphatidylserine (Avanti Polar Lipids, Inc.) and 150 μM UltraPure-ATP (attached to ADP-Glo)) was then added, and the mixture was left standing at room temperature for 30 minutes to react. Thereafter, 3 μL of an ADP-Glo Reagent was added, and the mixture was left standing at room temperature for 40 minutes to stop the enzyme reaction. Further, 6 μL of a Kinase-Detection Reagent was added, the mixture was left standing at room temperature for 30 minutes, and the luminescence was then measured using ARVO X3 (PerkinElmer, Inc.). The half maximal inhibitory concentration (IC50) was calculated by Sigmoid-Emax model non-linear regression analysis, where the signal value in solvent treatment was set to 0% inhibition and the signal value without addition of the DGK ξ enzyme was set to 100% inhibition. […] In the table, Ex represents the number of each Example described below. Also, in the table, compound C (cpd. C) represents the test compound of the Example 199 described in the international publication WO 2008/054702.
# Sequence of human recombinant DGK ξ (Q13574 whole entry): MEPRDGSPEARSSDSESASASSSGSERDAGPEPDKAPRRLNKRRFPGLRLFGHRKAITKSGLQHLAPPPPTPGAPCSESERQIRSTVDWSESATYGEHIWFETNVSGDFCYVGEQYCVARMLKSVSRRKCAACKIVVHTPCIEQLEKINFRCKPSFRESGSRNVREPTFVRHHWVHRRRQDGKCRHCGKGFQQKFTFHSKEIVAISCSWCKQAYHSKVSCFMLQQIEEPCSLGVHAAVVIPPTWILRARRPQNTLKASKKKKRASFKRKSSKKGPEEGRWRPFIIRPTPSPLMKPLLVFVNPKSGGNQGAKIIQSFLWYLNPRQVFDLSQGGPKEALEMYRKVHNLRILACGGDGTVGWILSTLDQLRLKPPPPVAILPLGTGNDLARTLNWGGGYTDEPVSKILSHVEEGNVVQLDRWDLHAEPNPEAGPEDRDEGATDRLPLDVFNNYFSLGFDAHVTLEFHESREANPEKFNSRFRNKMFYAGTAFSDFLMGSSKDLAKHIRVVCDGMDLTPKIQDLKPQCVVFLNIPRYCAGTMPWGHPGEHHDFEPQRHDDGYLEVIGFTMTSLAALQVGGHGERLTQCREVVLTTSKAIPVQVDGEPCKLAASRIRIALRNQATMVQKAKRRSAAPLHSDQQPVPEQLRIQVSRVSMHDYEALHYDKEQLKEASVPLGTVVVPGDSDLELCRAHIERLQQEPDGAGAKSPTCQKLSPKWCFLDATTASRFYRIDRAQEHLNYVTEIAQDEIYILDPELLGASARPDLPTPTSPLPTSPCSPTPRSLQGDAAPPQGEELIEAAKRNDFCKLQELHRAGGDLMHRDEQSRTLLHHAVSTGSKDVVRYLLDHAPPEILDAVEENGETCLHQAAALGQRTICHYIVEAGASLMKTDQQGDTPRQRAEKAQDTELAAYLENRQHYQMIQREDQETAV
row,SMILES,IC50
1,NC[C@@H]1CCCN(c2c(NC(=O)c3csc(-c4ccnnc4)n3)ccc(Oc3ccccc3Cl)c2C(F)(F)F)C1 [Example 35],2 nM
2,NC[C@@H]1CCCN(c2c(NC(=O)c3csc(-c4ccnnc4)n3)ccc(Oc3c(F)cccc3F)c2C(F)(F)F)C1 [Example 22],5 nM
3,NC[C@@H]1CCCN(c2c(NC(=O)c3csc(-c4ccnnc4)n3)ccc(OC3CC3)c2C(F)(F)F)C1 [Example 13],13 nM
4,Cn1nccc1Oc1ccc(NC(=O)c2csc(-c3ccnnc3)n2)c(N2CCC[C@@H](CN)C2)c1C(F)(F)F [Example 44],19 nM
5,CN(C)[C@@H]1CCN2CCN(c3c(NC(=O)c4csc(-c5ccnnc5)n4)ccc(OC4CC4)c3C(F)(F)F)C[C@@H]12 [Example 82],3 nM
6,NC[C@@H]1CCCN(c2c(NC(=O)c3csc(-c4ccnnc4)n3)ccc(Oc3ccccn3)c2C(F)(F)F)C1 [Example 39],7 nM
7,"O=C(Nc1ccc(Oc2ccccc2F)c(C(F)(F)F)c1N1CCC[C@@H]1CNC1COC1)c1csc(-c2ccnnc2)n1 [Example 63, N-[4-(2-fluorophenoxy)-2-[(2R)-2-{[(oxetan-3-yl)amino]methyl}pyrrolidin-1-yl]-3-(trifluoromethyl)phenyl]-2-(pyridazin-4-yl)-1,3-thiazole-4-carboxamide]",429 nM
8,Cn1cc(Oc2ccc(NC(=O)c3csc(-c4ccnnc4)n3)c(N3CCC[C@@H](CN)C3)c2C(F)(F)F)cn1 [Example 16],41 nM
9,N[C@@H]1CCN2CCN(c3c(NC(=O)c4csc(-c5ccnnc5)n4)ccc(OC4CC4)c3C(F)(F)F)C[C@@H]12 [Example 76],6 nM
10,NC[C@@H]1CCCN(c2c(NC(=O)c3csc(-c4ccnnc4)n3)ccc(OC3CCC3)c2C(F)(F)F)C1 [Example 14],13 nM
11,O=C(Nc1ccc(OC2CC2)c(C(F)(F)F)c1C1=CCN(Cc2cc[nH]n2)CC1)c1csc(-c2ccnnc2)n1 [Example 3],20 nM
12,COCCNC[C@@H]1CCCN(c2c(NC(=O)c3csc(-c4ccnnc4)n3)ccc(Oc3cccc(F)c3)c2C(F)(F)F)C1 [Example 53],27 nM
13,NC[C@@H]1CCCN(c2c(NC(=O)c3csc(-c4ccnnc4)n3)ccc(Oc3c(F)cc(F)cc3F)c2C(F)(F)F)C1 [Example 23],10 nM
14,"O=C(Nc1ccc(Oc2ccccc2)c(C(F)(F)F)c1N1CCOC2(CCN(C3COC3)CC2)C1)c1csc(-c2ccnnc2)n1 [Example 62, N-{2-[9-(oxetan-3-yl)-1-oxa-4,9-diazaspiro[5.5]undecan-4-yl]-4-phenoxy-3-(trifluoromethyl)phenyl}-2-(pyridazin-4-yl)-1,3-thiazole-4-carboxamide]",10 nM
15,"CNC1(C(N)=O)CCN(c2ccccc2NC(=O)c2csc(-c3ccnnc3)n2)CC1 [cpd. C, reference compound]",> 2000 nM
16,O=C(Nc1ccc(Oc2ccccc2)c(C(F)(F)F)c1C1=CCN(Cc2cc[nH]n2)CC1)c1csc(-c2ccnnc2)n1 [Example 2],53 nM
17,NC[C@@H]1CCCN(c2c(NC(=O)c3csc(-c4ccnnc4)n3)ccc(N3CCCC3)c2C(F)(F)F)C1 [Example 47],147 nM
18,N#Cc1ccccc1Oc1ccc(NC(=O)c2csc(-c3ccnnc3)n2)c(N2CCC[C@@H](CN)C2)c1C(F)(F)F [Example 38],3 nM

# Now from value to compound:
row,IC50,SMILES
1,99 nM,CN(C)C[C@@H]1CCCN(c2c(NC(=O)c3csc(-c4ccnnc4)n3)ccc(Oc3ccccc3)c2C(F)(F)F)C1 [Example 55]
2,47 nM,N[C@@H]1CCN2CCN(c3c(NC(=O)c4csc(-c5ccnnc5)n4)ccc(Oc4ccccc4)c3C(F)(F)F)C[C@H]12 [Example 79]
3,50 nM,NC[C@@H]1CCCN(c2c(NC(=O)c3csc(-c4ccnnc4)n3)ccc(Oc3cccc(Cl)c3)c2C(F)(F)F)C1 [Example 40]
4,5 nM,"CNC[C@@H]1CCCN(c2c(NC(=O)c3csc(-c4ccnnc4)n3)ccc(Oc3ccccc3F)c2C(F)(F)F)C1 [Example 83, N-[4-(2-fluorophenoxy)-2-{(3S)-3-[(methylamino)methyl]piperidin-1-yl}-3-(trifluoromethyl)phenyl]-2-(pyridazin-4-yl)-1,3-thiazole-4-carboxamide mono[(2E)-but-2-enedioate]]"
5,144 nM,CN(C)CC[C@@H]1CN(c2c(NC(=O)c3csc(-c4ccnnc4)n3)ccc(Oc3ccccc3)c2C(F)(F)F)CCO1 [Example 58]
6,23 nM,CNC[C@H]1CCCN(c2c(NC(=O)c3csc(-c4ccnnc4)n3)ccc(Oc3ccccc3)c2C(F)(F)F)C1 [Example 50]
7,12 nM,CNC[C@H]1CN(c2c(NC(=O)c3csc(-c4ccnnc4)n3)ccc(Oc3ccccc3)c2C)CCN1C [Example 65]
8,23 nM,O=C(Nc1ccc(Oc2ccccc2)c(C(F)(F)F)c1N1CCCC2(CCNCC2)C1)c1csc(-c2ccnnc2)n1 [Example 42]
9,23 nM,CCNC[C@@H]1CCCN(c2c(NC(=O)c3csc(-c4ccnnc4)n3)ccc(Oc3cccc(F)c3)c2C(F)(F)F)C1 [Example 52]
10,42 nM,NC[C@@H]1CN(c2c(NC(=O)c3csc(-c4ccnnc4)n3)ccc(Oc3ccccc3)c2C(F)(F)F)CCO1 [Example 25]
11,6 nM,"NC[C@@H]1CCCN(c2c(NC(=O)c3csc(-c4ccnnc4)n3)ccc(Oc3ccccc3)c2C(F)(F)F)C1 [Example 84, N-{2-[(3S)-3-(aminomethyl)piperidin-1-yl]-4-phenoxy-3-(trifluoromethyl)phenyl}-2-(pyridazin-4-yl)-1,3-thiazole-4-carboxamide mono[(2E)-but-2-enedioate]]"
12,42 nM,NC[C@@H]1CCCN(c2c(NC(=O)c3csc(-c4ccnnc4)n3)ccc(-c3ccccc3)c2C(F)(F)F)C1 [Example 28]
13,6 nM,Cc1ccccc1Oc1ccc(NC(=O)c2csc(-c3ccnnc3)n2)c(N2CCC[C@@H](CN)C2)c1C(F)(F)F [Example 21]
14,3 nM,"CNC[C@H]1CN(c2c(NC(=O)c3csc(-c4ccnnc4)n3)ccc(Oc3ccccc3)c2C(F)(F)F)CCN1C [Example 6, N-[2-{(3S)-4-methyl-3-[(methylamino)methyl]piperazin-1-yl}-4-phenoxy-3-(trifluoromethyl)phenyl]-2-(pyridazin-4-yl)-1,3-thiazole-4-carboxamide]"
15,29 nM,CN(C)C[C@@H]1CN(c2c(NC(=O)c3csc(-c4ccnnc4)n3)ccc(Oc3ccccc3)c2C(F)(F)F)CCO1 [Example 56]
16,15 nM,NC[C@@H]1CCCN(c2c(NC(=O)c3csc(-c4ccnnc4)n3)ccc(Oc3cccc(F)c3)c2C(F)(F)F)C1 [Example 85]
